Here are results for 4 compounds from ChEMBL document CHEMBL1135449, “A novel series of hybrid compounds derived by combining 2-aminotetralin and piperazine fragments: binding activity at D2 and D3 receptors” (Bioorg Med Chem Lett, 2002).

SMILES strings stand for the structures.

The target of assay [1] is D(2) dopamine receptor (Homo sapiens, UniProt P14416). As to the kind of experiment: Tested for the binding constant against cloned human Dopamine receptor D2L in HEK cells by displacing [3H]spiperone. In kind it is cell-based, HEK293.
Chain of D(2) dopamine receptor (P14416 whole entry): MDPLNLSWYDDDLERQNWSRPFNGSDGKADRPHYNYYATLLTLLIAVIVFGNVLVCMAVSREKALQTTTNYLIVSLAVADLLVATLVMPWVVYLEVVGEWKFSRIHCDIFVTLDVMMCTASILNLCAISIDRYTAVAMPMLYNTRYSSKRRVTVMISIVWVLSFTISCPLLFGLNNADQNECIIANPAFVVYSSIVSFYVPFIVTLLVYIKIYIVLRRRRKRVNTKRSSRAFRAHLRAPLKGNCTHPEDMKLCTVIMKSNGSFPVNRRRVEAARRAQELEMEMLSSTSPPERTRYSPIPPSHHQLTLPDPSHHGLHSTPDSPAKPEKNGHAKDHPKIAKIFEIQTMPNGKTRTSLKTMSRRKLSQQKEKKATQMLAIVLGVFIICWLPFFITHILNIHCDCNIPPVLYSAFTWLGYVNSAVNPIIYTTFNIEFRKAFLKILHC
Assay [2] deals with D(3) dopamine receptor (Homo sapiens, UniProt P35462). As to the kind of experiment: Tested for the binding constant against cloned human Dopamine receptor D3 in HEK cells by displacing [3H]spiperone. It counts as cell-based, HEK293.
Chain of D(3) dopamine receptor (P35462 whole entry): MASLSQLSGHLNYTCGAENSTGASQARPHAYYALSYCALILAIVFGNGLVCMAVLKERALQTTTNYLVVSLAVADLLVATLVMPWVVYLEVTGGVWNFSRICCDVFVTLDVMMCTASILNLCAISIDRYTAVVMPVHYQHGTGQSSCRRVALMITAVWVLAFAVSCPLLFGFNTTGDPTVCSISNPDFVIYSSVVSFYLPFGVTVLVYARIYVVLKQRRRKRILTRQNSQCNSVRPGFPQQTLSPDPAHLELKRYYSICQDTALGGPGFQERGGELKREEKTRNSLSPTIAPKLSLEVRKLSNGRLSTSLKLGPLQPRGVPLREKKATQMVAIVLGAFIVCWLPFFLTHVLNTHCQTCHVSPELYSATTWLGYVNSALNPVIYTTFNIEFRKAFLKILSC

One may read the Ki as the equilibrium dissociation constant of an inhibitor or competing ligand from its target. On to `N#CCCCN(CCCN1CCN(c2ccccc2)CC1)C1CCc2ccc(O)cc2C1` (stereo not drawn), for which the Ki in assay [1] came to 622 nM; in assay [2], 50.2 nM.
For the compound `CCCN(CCN1CCN(c2cccc(Cl)c2Cl)CC1)C1CCc2ccc(O)cc2C1` (stereo not drawn), the Ki in assay [1] came out at 27.4 nM; in assay [2], 1.13 nM.
For `O=C(NCCCCN(CCCN1CCN(c2ccccc2)CC1)C1CCc2ccc(O)cc2C1)c1ccccc1` (stereo not drawn), in that order: 782 nM and 756 nM.
On to `O=C(NCCN(CCCN1CCN(c2ccccc2)CC1)C1CCc2ccc(O)cc2C1)c1ccccc1` (stereo not drawn), for which the figures for the Ki in assay [1] and in assay [2] were 354 nM and 55.7 nM, respectively.
